Test [1] deals with T1, 318 nonolfactory human GPCRs (Homo sapiens, UniProt Q9Y5Y4).
T1 construct: expressed in transfected cells; host or cells: HTLA cells, transient
It counts as cell-based. The following applies: GPR44; C21 5 µM.

Test [2] addresses T2, 318 nonolfactory human GPCRs (Homo sapiens, UniProt Q86SQ4).
T2 construct: expressed in transfected cells; host or cells: HTLA cells, transient
The class given is cell-based. The following applies: GPR126; C21 5 µM.

For test [3], the target named is T3, 318 nonolfactory human GPCRs (Homo sapiens, UniProt P48146).
T3 construct: expressed in transfected cells; host or cells: HTLA cells, transient
It counts as cell-based. The following applies: NPBW2; C21 5 µM.

The target in test [4] is T4, 318 nonolfactory human GPCRs (Homo sapiens, UniProt Q6U736).
T4 construct: expressed in transfected cells; host or cells: HTLA cells, transient
The class given is cell-based. The following applies: OPN5; C21 5 µM.

Test [5] deals with 318 nonolfactory human GPCRs (Homo sapiens, UniProt P32239). The class given is cell-based. The following applies: CCKBR; C21 5 µM.
A further test deals with T5, hM1 (Homo sapiens, UniProt P11229).
T5 sequence (P11229 1-460): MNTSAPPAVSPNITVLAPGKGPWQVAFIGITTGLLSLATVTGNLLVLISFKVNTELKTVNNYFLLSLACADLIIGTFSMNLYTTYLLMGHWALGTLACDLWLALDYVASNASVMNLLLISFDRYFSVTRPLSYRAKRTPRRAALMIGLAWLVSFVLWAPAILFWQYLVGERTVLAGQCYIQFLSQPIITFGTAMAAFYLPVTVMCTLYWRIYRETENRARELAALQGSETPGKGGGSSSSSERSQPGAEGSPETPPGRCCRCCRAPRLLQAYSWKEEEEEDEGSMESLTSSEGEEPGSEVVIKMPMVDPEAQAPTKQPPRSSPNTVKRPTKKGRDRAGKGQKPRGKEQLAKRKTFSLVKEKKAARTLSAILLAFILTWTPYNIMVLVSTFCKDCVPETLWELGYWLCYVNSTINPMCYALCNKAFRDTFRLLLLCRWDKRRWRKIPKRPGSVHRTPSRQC
The test can be described thus: pERK assay, antagonist mode (shift of ACh curve). The following applies: hM1, CHO cells. The class given is cell-based. The text has this: In the absence of C21 ([B] = 0), this equation becomes the standard four-parameter logistic equation for fitting agonist concentration–response data.

The target of the next test is dopamine D2 receptors (Homo sapiens, UniProt P14416). The test can be described thus: cAMP signaling concentration-response, agonist mode. It counts as cell-based. The protocol: (§1) HEK293 T cells were used for transient transfections and Gi mediated cAMP production assays. Assays were performed according to published procedures (PMID25895059, PRESTO-Tango paper). More detailed assay protocols are available at NIMH PDSP Web site (http://pdspdb.unc.edu/pdspWeb/?site=assays).

The target of the next test is dopamine D3 receptors (Homo sapiens, UniProt P35462). The test is described as above. It counts as cell-based. On the procedure: as §1
The target in the next test is T6, histamine H4 receptors (Homo sapiens, UniProt Q9H3N8).
T6 construct: expressed in transfected cells; host or cells: HEK293T, transient
Described as above. The class given is cell-based. On the procedure: as §1

The next test has as its target T7, hM4Di (Homo sapiens, UniProt P08173, A203G/Y113C).
T7 sequence (P08173 1-479 Y113C/A203G): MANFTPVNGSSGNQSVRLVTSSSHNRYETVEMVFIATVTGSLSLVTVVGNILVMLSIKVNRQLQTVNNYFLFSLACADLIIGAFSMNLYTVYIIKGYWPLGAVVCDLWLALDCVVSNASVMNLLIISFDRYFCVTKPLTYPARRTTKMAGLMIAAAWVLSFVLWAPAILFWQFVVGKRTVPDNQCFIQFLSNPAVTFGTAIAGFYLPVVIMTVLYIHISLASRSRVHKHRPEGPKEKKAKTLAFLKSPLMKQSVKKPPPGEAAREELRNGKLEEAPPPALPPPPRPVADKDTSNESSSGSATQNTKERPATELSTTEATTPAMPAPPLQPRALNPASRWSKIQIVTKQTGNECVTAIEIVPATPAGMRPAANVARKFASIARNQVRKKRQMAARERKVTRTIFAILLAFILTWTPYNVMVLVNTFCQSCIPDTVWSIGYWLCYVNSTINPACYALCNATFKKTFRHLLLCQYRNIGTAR
The test can be described thus: inhibition of isoproterenol-stimulated cAMP production. The class given is cell-based. The following applies: inhibition of isoproterenol elevated cAMP, mean (±SEM). Details: expressed in transfected cells. On the technique in general: cAMP levels reflect the balance of adenylyl cyclase and phosphodiesterase activity.

The target of another test is T8, hM4 (Homo sapiens, UniProt P08173).
T8 construct: HA (hemagglutinin); expressed in transfected cells
T8 sequence (P08173 1-479): T7 sequence (P08173 1-479 Y113C/A203G) with C113Y, G203A
Briefly: whole-cell [3H]NMS competition binding. The following applies: hM4, FlpIn CHO cells, mean (±SEM).

Structures are written as SMILES. Residue numbers refer to the chain shown, from its start. Values joined by “and” are separate entries in the source; they are usually repeats but may differ in a detail not shown here. Equal values may be shown once.

The EC50 is the concentration that produces a half-maximal response. A high value points to a need for much substance. One may read the Ki as the equilibrium dissociation constant of an inhibitor or competing ligand from its target. Read a low Ki as higher affinity.

T3 sequence (P48146 whole entry): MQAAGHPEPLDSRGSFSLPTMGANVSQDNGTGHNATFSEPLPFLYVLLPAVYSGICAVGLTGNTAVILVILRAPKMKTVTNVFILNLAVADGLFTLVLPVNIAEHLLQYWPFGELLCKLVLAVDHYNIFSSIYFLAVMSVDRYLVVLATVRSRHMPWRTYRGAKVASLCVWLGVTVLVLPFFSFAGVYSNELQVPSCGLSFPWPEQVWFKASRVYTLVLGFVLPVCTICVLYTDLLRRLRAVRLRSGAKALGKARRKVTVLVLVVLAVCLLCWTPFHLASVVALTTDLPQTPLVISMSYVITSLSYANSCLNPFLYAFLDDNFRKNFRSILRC
T1 sequence (Q9Y5Y4 whole entry): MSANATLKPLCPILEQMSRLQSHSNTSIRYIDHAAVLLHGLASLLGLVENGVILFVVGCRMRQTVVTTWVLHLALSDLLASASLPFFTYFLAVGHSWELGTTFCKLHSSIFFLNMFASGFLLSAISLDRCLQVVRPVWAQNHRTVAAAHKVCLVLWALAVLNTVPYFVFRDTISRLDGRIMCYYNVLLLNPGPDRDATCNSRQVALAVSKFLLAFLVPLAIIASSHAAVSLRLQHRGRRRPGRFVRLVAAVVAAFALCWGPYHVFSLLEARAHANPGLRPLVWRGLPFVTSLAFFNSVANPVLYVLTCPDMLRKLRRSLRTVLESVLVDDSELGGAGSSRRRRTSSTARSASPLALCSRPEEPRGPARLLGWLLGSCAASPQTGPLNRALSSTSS
T4 sequence (Q6U736 whole entry): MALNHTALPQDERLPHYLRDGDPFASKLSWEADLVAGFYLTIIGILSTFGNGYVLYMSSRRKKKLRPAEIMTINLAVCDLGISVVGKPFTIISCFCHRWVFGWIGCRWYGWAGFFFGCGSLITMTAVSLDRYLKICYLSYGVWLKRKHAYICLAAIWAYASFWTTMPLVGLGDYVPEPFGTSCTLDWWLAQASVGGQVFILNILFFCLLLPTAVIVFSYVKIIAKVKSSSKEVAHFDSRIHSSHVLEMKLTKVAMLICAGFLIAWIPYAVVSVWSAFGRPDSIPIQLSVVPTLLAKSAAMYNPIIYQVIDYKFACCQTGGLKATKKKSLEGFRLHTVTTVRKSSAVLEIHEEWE
Sequence of 318 nonolfactory human GPCRs (Homo sapiens, UniProt P32239) (P32239 whole entry): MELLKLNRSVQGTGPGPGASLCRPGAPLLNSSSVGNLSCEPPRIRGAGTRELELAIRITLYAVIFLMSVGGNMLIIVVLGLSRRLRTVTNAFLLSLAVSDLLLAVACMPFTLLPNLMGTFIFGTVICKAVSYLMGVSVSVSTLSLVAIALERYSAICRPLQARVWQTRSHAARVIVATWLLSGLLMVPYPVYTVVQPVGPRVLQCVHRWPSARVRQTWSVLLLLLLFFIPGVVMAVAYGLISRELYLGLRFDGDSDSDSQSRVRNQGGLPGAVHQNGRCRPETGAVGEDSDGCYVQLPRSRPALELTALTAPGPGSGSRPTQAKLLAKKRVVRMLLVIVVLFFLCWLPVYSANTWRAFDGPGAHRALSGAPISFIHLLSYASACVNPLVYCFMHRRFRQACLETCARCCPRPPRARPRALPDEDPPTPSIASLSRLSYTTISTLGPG
T2 sequence (Q86SQ4 38-1221): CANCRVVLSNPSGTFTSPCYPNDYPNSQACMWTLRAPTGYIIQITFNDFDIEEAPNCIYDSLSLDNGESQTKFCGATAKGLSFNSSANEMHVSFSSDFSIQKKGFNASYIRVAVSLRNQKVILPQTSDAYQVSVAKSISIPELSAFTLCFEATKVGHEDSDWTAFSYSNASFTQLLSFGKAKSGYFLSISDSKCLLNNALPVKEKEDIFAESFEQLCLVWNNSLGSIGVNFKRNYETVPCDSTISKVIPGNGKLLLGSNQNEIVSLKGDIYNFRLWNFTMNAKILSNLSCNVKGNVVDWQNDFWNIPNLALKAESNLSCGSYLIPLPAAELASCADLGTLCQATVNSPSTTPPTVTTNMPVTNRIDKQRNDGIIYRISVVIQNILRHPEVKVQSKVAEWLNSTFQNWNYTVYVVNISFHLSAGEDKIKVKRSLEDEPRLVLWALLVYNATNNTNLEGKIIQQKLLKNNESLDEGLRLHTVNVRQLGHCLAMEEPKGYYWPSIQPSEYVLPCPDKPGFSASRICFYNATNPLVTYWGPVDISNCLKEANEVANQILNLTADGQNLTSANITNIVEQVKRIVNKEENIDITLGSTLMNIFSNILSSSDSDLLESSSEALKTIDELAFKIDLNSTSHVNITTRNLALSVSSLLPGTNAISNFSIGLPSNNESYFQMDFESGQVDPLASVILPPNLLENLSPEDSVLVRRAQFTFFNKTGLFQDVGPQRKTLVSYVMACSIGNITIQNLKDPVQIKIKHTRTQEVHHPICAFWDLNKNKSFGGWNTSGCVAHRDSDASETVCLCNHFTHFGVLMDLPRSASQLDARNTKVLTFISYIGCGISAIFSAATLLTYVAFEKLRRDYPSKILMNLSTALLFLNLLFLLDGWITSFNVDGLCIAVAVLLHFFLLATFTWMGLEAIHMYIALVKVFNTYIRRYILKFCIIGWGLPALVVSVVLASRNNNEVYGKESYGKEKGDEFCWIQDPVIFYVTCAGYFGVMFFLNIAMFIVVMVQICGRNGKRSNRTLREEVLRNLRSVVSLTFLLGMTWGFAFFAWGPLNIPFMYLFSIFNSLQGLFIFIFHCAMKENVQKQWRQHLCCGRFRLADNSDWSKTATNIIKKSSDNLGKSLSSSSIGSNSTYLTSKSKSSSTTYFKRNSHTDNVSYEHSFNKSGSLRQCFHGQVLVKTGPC
Sequence of dopamine D2 receptors (P14416 whole entry): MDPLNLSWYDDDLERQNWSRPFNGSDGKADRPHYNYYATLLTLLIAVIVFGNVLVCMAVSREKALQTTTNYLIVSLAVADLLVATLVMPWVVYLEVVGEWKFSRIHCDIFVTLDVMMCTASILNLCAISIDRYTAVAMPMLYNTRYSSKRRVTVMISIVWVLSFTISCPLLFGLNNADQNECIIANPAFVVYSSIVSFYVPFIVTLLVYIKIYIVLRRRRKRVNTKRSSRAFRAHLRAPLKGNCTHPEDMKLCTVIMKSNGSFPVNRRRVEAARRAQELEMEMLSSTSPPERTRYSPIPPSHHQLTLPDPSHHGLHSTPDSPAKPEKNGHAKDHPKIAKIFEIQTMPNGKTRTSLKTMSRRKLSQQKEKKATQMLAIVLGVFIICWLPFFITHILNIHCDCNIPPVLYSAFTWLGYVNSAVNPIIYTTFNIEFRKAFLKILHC
Sequence of dopamine D3 receptors (P35462 whole entry): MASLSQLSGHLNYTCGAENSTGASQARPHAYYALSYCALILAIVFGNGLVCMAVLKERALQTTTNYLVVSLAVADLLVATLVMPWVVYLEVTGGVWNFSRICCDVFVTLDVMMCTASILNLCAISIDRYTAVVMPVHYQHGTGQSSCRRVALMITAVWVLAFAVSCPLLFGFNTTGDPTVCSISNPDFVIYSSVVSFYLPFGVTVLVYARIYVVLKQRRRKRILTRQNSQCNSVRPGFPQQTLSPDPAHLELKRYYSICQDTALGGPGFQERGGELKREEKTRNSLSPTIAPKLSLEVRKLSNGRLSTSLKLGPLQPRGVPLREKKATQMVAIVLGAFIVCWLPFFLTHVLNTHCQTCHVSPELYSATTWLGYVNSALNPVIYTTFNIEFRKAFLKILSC
T6 sequence (Q9H3N8 whole entry): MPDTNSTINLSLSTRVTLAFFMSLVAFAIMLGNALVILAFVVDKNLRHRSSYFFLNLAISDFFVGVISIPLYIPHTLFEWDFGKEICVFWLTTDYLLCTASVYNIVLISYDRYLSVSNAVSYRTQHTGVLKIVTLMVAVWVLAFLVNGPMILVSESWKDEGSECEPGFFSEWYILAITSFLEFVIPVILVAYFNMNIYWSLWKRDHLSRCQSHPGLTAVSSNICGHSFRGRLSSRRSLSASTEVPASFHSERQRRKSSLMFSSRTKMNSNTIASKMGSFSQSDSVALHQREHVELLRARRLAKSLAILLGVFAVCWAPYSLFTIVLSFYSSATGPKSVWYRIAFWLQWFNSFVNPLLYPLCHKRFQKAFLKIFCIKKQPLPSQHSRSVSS

In the case of `c1ccc2c(c1)N=C(N1CCNCC1)c1ccccc1N2` [C21, 11-(1-piperazinyl)-5H-dibenzo[b,e][1,4]diazepine], the “FOLD OVER BASAL” value in test [1] was 1.3 fold and 2.1 fold and 1.5 fold and 1.4 fold; in test [2] it was 0.3 fold and 0.4 fold; in [3], 1.1 fold and 1.3 fold and 1.4 fold; in test [4], 1.2 fold and 1.3 fold and 0.9 fold; in test [5] it was 1.8 fold and 2.1 fold and 1.9 fold and 1.2 fold. In addition, on hM1, the “antagonist activity (shift of acetylcholine curve, pERK)” value is reported as “weak functional antagonism”. In addition, the “agonist activity, follow-up concentration-response (cAMP)” value on dopamine D2 receptors, on dopamine D3 receptors and at histamine H4 receptors was “minimal activity” throughout. Besides, on hM4Di, the EC50 was 17.8 nM. This compound gave a Ki at hM4 of 3630 nM.

Values taken from publication PMC6407913, “DREADD Agonist 21 Is an Effective Agonist for Muscarinic-Based DREADDs in Vitro and in Vivo” (ACS Pharmacology & Translational Science, 2018).
